The target in this assay is CDK7/CycH/MNAT1 (Homo sapiens (Human), UniProt P50613). In words: Biochemical assay for CDK7 (TR-FRET kinase assay). To be noted: 60 min pre-incubation, 1 mM ATP; for inhibition at 10 µM / % inhibition @ 10 μM: 10 μM compound; for inhibition at 10 µM: read-out: % inhibition @ 10 μM; for pIC50: read-out: IC50. The protocol:
The ability of compounds to inhibit CDK7 kinase activity was tested in a TR-FRET assay using 5 nM of CDK7/CycH/MNAT1 obtained from Invitrogen, USA. Test compounds were pre-incubated with the kinase at room temperature for 60 min. After incubation, substrate mix [100 nM Ultra-light MBP (Perkin Elmer, USA) and 1 mM ATP (Sigma)] was added. The above reaction was stopped by the addition of 40 mM EDTA after 60 minutes of kinase reaction. 1 nM Eu-labelled antiphospho-MBP antibody [Perkin Elmer, USA] was added, mixed well and the fluorescence emission at 615 nm and 665 nm [excitation at 340 nm] was measured. The final DMSO concentration in the assay was 1%. For IC50 determination, appropriate concentrations were made by ⅓^rd serial dilutions of 10 mM DMSO stock solution of test compound. All the fluorescence measurements were made in a Victor 3 Multilabel Counter [Perkin Elmer, USA]. The IC50 was determined by fitting the dose response data to sigmoidal curve fitting equation using GraphPad Prism software V5. To identify compounds that inhibit CDK7 irreversibly, time depended inhibition studies were carried by pre-incubating compound with the enzyme at three time points (20, 60 and 180 min) and carrying out assay as described above.
On the technique in general: Time-resolved FRET reads energy transfer from a long-lived donor to a nearby acceptor.

pIC50: −log10 of the molar value. A value given as a limit tells only on which side of the number the result lay.

CDK7/CycH/MNAT1, sequence (P50613 whole entry): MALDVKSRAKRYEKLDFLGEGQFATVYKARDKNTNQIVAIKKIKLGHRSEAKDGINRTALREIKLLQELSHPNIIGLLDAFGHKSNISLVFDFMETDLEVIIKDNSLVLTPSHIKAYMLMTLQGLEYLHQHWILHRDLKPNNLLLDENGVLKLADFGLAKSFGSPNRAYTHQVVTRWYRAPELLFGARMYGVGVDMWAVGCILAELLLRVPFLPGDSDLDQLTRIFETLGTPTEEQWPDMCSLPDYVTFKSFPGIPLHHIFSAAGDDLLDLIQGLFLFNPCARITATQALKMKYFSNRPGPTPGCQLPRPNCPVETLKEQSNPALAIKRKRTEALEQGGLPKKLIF
CDK7/CycH/MNAT1, sequence (P51946 whole entry partner): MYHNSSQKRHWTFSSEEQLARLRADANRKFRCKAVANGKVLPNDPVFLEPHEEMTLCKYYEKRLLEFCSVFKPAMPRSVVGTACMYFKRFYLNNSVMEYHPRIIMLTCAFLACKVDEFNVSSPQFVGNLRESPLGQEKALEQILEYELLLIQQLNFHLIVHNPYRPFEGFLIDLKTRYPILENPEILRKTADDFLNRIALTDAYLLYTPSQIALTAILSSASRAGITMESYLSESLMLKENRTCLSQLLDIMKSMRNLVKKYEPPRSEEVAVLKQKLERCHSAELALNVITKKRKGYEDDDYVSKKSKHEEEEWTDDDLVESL
CDK7/CycH/MNAT1, sequence (P51948 whole entry partner): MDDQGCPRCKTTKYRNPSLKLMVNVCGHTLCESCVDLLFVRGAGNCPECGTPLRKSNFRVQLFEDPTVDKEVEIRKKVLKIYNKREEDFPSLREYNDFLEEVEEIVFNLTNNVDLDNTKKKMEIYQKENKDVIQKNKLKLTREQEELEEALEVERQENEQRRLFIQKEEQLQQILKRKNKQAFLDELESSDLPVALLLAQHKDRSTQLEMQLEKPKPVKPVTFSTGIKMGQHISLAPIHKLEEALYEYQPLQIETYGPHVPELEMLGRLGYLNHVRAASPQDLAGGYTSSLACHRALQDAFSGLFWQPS

The inhibition is the share of the control response that was lost under treatment. As usually defined, the pIC50 is the IC50 on a negative log10 scale, so that one unit is a factor of ten. On to `C=CC(=O)N[C@H]1CC[C@@H](C(=O)Nc2cccc(CNc3nc(NC4CCCC(O)C4)nc4c(C(C)C)cnn34)c2)CC1` (single isomer, unassigned) [Compound 10, 4-acrylamido-N-(3-(((2-((3-hydroxycyclohexyl)amino)-8-isopropylpyrazolo[1,5-a][1,3,5]triazin-4-yl)amino)methyl)phenyl)cyclohexane-1-carboxamide], for which the inhibition at 10 µM was 89% and the pIC50 was 6.00 to 6.52.
On to `C=CC(=O)N[C@H]1CC[C@@H](C(=O)Nc2cccc(CNc3nc(NC4CCCC(O)C4)nc4c(C(C)C)cnn34)c2)CC1` (single isomer, unassigned) [Compound 11, 4-acrylamido-N-(3-(((2-((3-hydroxycyclohexyl)amino)-8-isopropylpyrazolo[1,5-a][1,3,5]triazin-4-yl)amino)methyl)phenyl)cyclohexane-1-carboxamide], for which the “% inhibition @ 10 μM” value is given as 89% and the pIC50 was 6.00 to 6.52.
For the molecule `C=CC(=O)N1CCC(C(=O)Nc2cccc(CNc3nc(NC4CCCC(O)C4)nc4c(C(C)C)cnn34)c2)C1` (single isomer, unassigned) [Compound 12, 1-acryloyl-N-(3-(((2-((3-hydroxycyclohexyl)amino)-8-isopropylpyrazolo[1,5-a][1,3,5]triazin-4-yl)amino)methyl)phenyl)pyrrolidine-3-carboxamide], the inhibition at 10 µM was 92% and the pIC50 was 6.00 to 6.52.
The matching figures for `C=CC(=O)N[C@H]1CC[C@@H](C(=O)Nc2cccc(CNc3nc(OC4CCOCC4F)nc4c(C(C)C)cnn34)c2)CC1` (single isomer, unassigned) [Compound 98, 4-acrylamido-N-(3-(((2-((3-fluorotetrahydro-2H-pyran-4-yl)oxy)-8-isopropylpyrazolo[1,5-a][1,3,5]triazin-4-yl)amino)methyl)phenyl)cyclohexane-1-carboxamide]: 88% and 6.00 to 6.52.
For `C=CC(=O)N[C@H]1CC[C@@H](C(=O)Nc2cccc(CNc3nc(OC4CCOCC4F)nc4c(C(C)C)cnn34)c2)CC1` (single isomer, unassigned) [Compound 99, 4-acrylamido-N-(3-(((2-((3-fluorotetrahydro-2H-pyran-4-yl)oxy)-8-isopropylpyrazolo[1,5-a][1,3,5]triazin-4-yl)amino)methyl)phenyl)cyclohexane-1-carboxamide], the “% inhibition @ 10 μM” value is listed as 82% and the pIC50 was under 6.00.
As to `C=CC(=O)N[C@H]1CC[C@@H](C(=O)Nc2cccc(CNc3nc(NC4CCOCC4)nc4c(C(C)C)cnn34)c2)CC1` [Compound 7, (1,4-cis)-4-acrylamido-N-(3-(((8-isopropyl-2-((tetrahydro-2H-pyran-4-yl)amino)pyrazolo[1,5-a][1,3,5]triazin-4-yl)amino)methyl)phenyl)cyclohexane-1-carboxamide], the inhibition at 10 µM came out at 91% and the pIC50 was under 6.00.
Take `C=CC(=O)N[C@H]1CC[C@@H](C(=O)Nc2cccc(CNc3nc(N[C@H]4CC[C@H](O)CC4)nc4c(C(C)C)cnn34)c2)CC1` [Compound 9, (1,4-cis)-4-acrylamido-N-(3-(((2-(((1r,4r)-4-hydroxycyclohexyl)amino)-8-isopropylpyrazolo[1,5-a][1,3,5]triazin-4-yl)amino)methyl)phenyl)cyclohexane-1-carboxamide]: the inhibition at 10 µM amounted to 85% and the pIC50 is under 6.00.
As for `C=CC(=O)N1CCCCC1C(=O)Nc1cccc(CNc2nc(N[C@H]3CCCOC3)nc3c(C(C)C)cnn23)c1` (stereo partly drawn) [Compound 16, 1-acryloyl-N-(3-(((8-isopropyl-2-(((S)-tetrahydro-2H-pyran-3-yl)amino)pyrazolo[1,5-a][1,3,5]triazin-4-yl)amino)methyl)phenyl)piperidine-2-carboxamide], the pIC50 was over 6.52.
Regarding `CC(C)=CC(=O)N1CCC1C(=O)Nc1cccc(CNc2nc(NC3CCOCC3)nc3c(C(C)C)cnn23)c1` (stereo not drawn) [Compound 17, N-(3-(((8-isopropyl-2-((tetrahydro-2H-pyran-4-yl)amino)pyrazolo[1,5-a][1,3,5]triazin-4-yl)amino)methyl)phenyl)-1-(3-methylbut-2-enoyl)azetidine-2-carboxamide], the inhibition at 10 µM worked out at 84% and the pIC50 was under 6.00.
The matching figures for `C=CC(=O)N1CC[C@@H]1C(=O)Nc1cccc(CNc2nc(NC3CCOCC3)nc3c(C(C)C)cnn23)c1` [Compound 19, (R)-1-acryloyl-N-(3-(((8-isopropyl-2-((tetrahydro-2H-pyran-4-yl)amino)pyrazolo[1,5-a][1,3,5]triazin-4-yl)amino)methyl)phenyl)azetidine-2-carboxamide]: 100% and over 6.52.
With `C=CC(=O)NC1CCCC(C(=O)Nc2cccc(CNc3nc(NC4CCOCC4)nc4c(C(C)C)cnn34)c2)C1` (stereo not drawn) [Compound 22, 3-acrylamido-N-(3-(((8-isopropyl-2-((tetrahydro-2H-pyran-4-yl)amino)pyrazolo[1,5-a][1,3,5]triazin-4-yl)amino)methyl)phenyl)cyclohexane-1-carboxamide], the inhibition at 10 µM was 98% and the pIC50 is over 6.52.
The matching figures for `C=CC(=O)N1CCOC(C(=O)Nc2cccc(CNc3nc(NC4CCOCC4)nc4c(C(C)C)cnn34)c2)C1` (stereo not drawn) [Compound 23, 4-acryloyl-N-(3-(((8-isopropyl-2-((tetrahydro-2H-pyran-4-yl)amino)pyrazolo[1,5-a][1,3,5]triazin-4-yl)amino)methyl)phenyl)morpholine-2-carboxamide]: 98% and over 6.52.
The matching figures for `C#CC(=O)N1CCOCC1C(=O)Nc1cccc(CNc2nc(NC3CCOCC3)nc3c(C(C)C)cnn23)c1` (stereo not drawn) [Compound 25, N-(3-(((8-isopropyl-2-((tetrahydro-2H-pyran-4-yl)amino)pyrazolo[1,5-a][1,3,5]triazin-4-yl)amino)methyl)phenyl)-4-propioloylmorpholine-3-carboxamide]: 99% and over 6.52.
In the case of `C=CC(=O)N1CCOCC1C(=O)Nc1ccc(CC)c(CNc2nc(NC3CCOCC3)nc3c(C(C)C)cnn23)c1` (stereo not drawn) [Compound 26, 4-acryloyl-N-(4-ethyl-3-(((8-isopropyl-2-((tetrahydro-2H-pyran-4-yl)amino)pyrazolo[1,5-a][1,3,5]triazin-4-yl)amino)methyl)phenyl)morpholine-3-carboxamide], the inhibition at 10 µM worked out at 95% and the pIC50 was 6.00 to 6.52.
Regarding `C=CC(=O)N1CCC1C(=O)Nc1ccc(C)c(CNc2nc(NC3CCOCC3)nc3c(C(C)C)cnn23)c1` (stereo not drawn) [Compound 27, 1-acryloyl-N-(3-(((8-isopropyl-2-((tetrahydro-2H-pyran-4-yl)amino)pyrazolo[1,5-a][1,3,5]triazin-4-yl)amino)methyl)-4-methylphenyl)azetidine-2-carboxamide], the inhibition at 10 µM is 100% and the pIC50 is over 6.52.
In the case of `C=CC(=O)N1CCC1C(=O)Nc1cc(CNc2nc(NC3CCOCC3)nc3c(C(C)C)cnn23)ccc1C` (stereo not drawn) [Compound 28, 1-acryloyl-N-(5-(((8-isopropyl-2-((tetrahydro-2H-pyran-4-yl)amino)pyrazolo[1,5-a][1,3,5]triazin-4-yl)amino)methyl)-2-methylphenyl)azetidine-2-carboxamide], the inhibition at 10 µM was found to be 99% and the pIC50 was over 6.52.
`C=CC(=O)N1CCC1C(=O)Nc1ccc(F)c(CNc2nc(NC3CCOCC3)nc3c(C(C)C)cnn23)c1` (stereo not drawn) [Compound 29, 1-acryloyl-N-(4-fluoro-3-(((8-isopropyl-2-((tetrahydro-2H-pyran-4-yl)amino)pyrazolo[1,5-a][1,3,5]triazin-4-yl)amino)methyl)phenyl)azetidine-2-carboxamide]: the inhibition at 10 µM is 98% and the pIC50 is over 6.52.
Turning to `C=CC(=O)N1CCC1C(=O)Nc1cccc(CNc2nc(NC3CCOCC3)nc3c(C(C)C)cnn23)c1F` (stereo not drawn) [Compound 30, 1-acryloyl-N-(2-fluoro-3-(((8-isopropyl-2-((tetrahydro-2H-pyran-4-yl)amino)pyrazolo[1,5-a][1,3,5]triazin-4-yl)amino)methyl)phenyl)azetidine-2-carboxamide], the inhibition at 10 µM came to 98% and the pIC50 is over 6.52.
In the case of `C=CC(=O)N1CCC1C(=O)Nc1cc(F)cc(CNc2nc(NC3CCOCC3)nc3c(C(C)C)cnn23)c1` (stereo not drawn) [Compound 31, 1-acryloyl-N-(3-fluoro-5-(((8-isopropyl-2-((tetrahydro-2H-pyran-4-yl)amino)pyrazolo[1,5-a][1,3,5]triazin-4-yl)amino)methyl)phenyl)azetidine-2-carboxamide], the inhibition at 10 µM is 100% and the pIC50 was over 6.52.
Turning to `C=CC(=O)N1CCC(C(=O)Nc2cc(F)cc(CNc3nc(NC4CCOCC4)nc4c(C(C)C)cnn34)c2)C1` (stereo not drawn) [Compound 33, 1-acryloyl-N-(3-fluoro-5-(((8-isopropyl-2-((tetrahydro-2H-pyran-4-yl)amino)pyrazolo[1,5-a][1,3,5]triazin-4-yl)amino)methyl)phenyl)pyrrolidine-3-carboxamide], the inhibition at 10 µM came out at 86% and the pIC50 is 6.00 to 6.52.

The record behind these values is patent US11186576B2, “Pyrazolo[1,5-A][1,3,5]triazine and pyrazolo[1,5-A]pyrimidine derivatives as CDK inhibitors” (Aurigene Discovery Technologies Limited, priority 2015, dated 2021).
